Patent US20210030678A1, “CANNABINOID AND CBD LIPOSOME FORMULATIONS AND USES THEREOF” (Medterra Pharma, priority 2019, published 2021)

System: circulating TNFα
Assay: Circulating TNFα versus time post inflammatory trigger (FIG. 17)
Type: in vivo
Details: systemic inflammatory event; equal doses
Text: FIG. 17 includes a graph illustrating the relative percentage of circulating TNFα versus time post inflammatory trigger for a control, CBD and packaged CBD application.

SMILES: C=C(C)[C@@H]1CCC(C)=C[C@H]1c1c(O)cc(CCCCC)cc1O [CBD, Cannabidiol]
- effect on relative concentration of circulating TNFα: able to quell a systemic inflammatory event
